16 compounds from patent publication US20180148418A1, “AMIDO-SUBSTITUTED CYCLOHEXANE DERIVATIVES” (Bayer Pharma Aktiengesellschaft, priority 2015, published 2018) can be followed below.

Usually IC50 stands for the midpoint of a concentration-inhibition curve. Higher therefore signals weaker potency in that assay.

The test system of test [1] is wildtype Wnt signaling cascade. In words: HEK293 TOP assay (Super TopFlash luciferase reporter, Wnt-3a stimulated). The conditions noted are these: Homo sapiens, HEK293, 16 h, HEK293 TOP reporter cells, Wnt3a at EC50, 16 hours. It is filed as cell-based. The method, boiled down:
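Compound series (50 μM down to 15 nM, 3.16-fold) diluted from DMSO 50-fold into CAFTY buffer, pH 7.4, 2 mM Ca^2+, 0.01% BSA, applied to Wnt-3a-stimulated HEK293 TopFlash and FOP reporter lines in parallel. Cells seeded 10000/well 24 h before; luciferase signal measured.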

In test [2] the test system is HEK293 cells cotransfected with the FOP control vector. In words: HEK293 FOP assay (control reporter with non-functional TCF elements). It is filed as cell-based. The conditions noted are these: Homo sapiens, 16 hours. The method, boiled down:
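Compound series from 50 μM down to 15 nM, prediluted in DMSO then 50-fold into CAFTY buffer (pH 7.4, 2 mM Ca2+, 0.01% BSA), tested alongside TOP cells on a Geneticin-selected HEK293 FOP line whose TCF elements are replaced by a random sequence; recombinant human Wnt-3a applied at 2500-5 ng/ml.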

For the next test, the target named is T1, TNKS2 (Homo sapiens, UniProt Q9H2K2).
T1 construct: purchased BPS Bioscience, San Diego, USA 80572 (TNKS2 Histone Ribosylation Assay Kit)
T1 sequence (Q9H2K2 1-1166): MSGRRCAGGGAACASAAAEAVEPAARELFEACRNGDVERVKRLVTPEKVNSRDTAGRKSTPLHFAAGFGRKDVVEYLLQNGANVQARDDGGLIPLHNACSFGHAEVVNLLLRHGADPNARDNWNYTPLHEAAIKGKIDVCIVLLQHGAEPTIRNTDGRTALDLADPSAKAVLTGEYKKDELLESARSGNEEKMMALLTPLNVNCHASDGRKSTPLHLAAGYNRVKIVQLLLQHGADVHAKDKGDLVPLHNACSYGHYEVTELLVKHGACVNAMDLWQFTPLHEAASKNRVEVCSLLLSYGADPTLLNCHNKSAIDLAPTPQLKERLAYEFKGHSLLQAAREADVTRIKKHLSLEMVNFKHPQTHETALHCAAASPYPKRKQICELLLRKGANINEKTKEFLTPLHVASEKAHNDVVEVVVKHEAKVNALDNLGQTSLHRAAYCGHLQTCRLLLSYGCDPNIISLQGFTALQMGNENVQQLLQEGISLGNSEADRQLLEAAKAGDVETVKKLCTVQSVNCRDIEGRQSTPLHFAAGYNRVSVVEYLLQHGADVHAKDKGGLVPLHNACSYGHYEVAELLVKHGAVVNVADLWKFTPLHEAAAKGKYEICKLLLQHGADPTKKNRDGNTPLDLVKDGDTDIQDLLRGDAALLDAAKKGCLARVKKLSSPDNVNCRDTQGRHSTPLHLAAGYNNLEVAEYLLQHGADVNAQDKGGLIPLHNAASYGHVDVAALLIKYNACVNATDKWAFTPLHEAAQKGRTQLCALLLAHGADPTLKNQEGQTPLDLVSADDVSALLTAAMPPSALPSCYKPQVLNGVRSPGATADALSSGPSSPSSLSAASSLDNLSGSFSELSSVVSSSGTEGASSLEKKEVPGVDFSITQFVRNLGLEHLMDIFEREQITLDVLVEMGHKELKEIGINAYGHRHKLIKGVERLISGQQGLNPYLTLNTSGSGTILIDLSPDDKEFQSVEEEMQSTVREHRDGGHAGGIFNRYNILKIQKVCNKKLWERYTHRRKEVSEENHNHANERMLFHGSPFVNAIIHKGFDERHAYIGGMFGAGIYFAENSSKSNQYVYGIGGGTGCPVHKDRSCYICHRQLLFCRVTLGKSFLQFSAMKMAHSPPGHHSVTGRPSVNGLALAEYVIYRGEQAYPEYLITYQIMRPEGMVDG
In words: TNKS2 Assay B (auto-parsylation, [3H]-NAD+ SPA). It is filed as biochemical. The conditions noted are these: 6 nM TNKS2, auto-parsylation, over night at room temperature.

With `CCNC(=O)c1nc[nH]c1C(=O)N[C@H]1CC[C@]2(CCN(c3ccc(F)cc3Cl)C2=O)CC1` [Example 339, N^5-[(cis)-2-(2-chloro-4-fluorophenyl)-1-oxo-2-azaspiro[4.5]dec-8-yl]-N^4-ethyl-1H-imidazole-4,5-dicarboxamide], the IC50 was 3100 nM in test [1], no less than 50000 nM in test [2] and greater than 10000 nM on TNKS2.
For `O=C(N[C@H]1CC[C@]2(CCN(c3ccc(F)cc3Cl)C2=O)CC1)c1[nH]cnc1C(=O)N1CC(F)C1` [Example 340, N-[(cis)-2-(2-chloro-4-fluorophenyl)-1-oxo-2-azaspiro[4.5]dec-8-yl]-4-[(3-fluoroazetidin-1-yl)carbonyl]-1H-imidazole-5-carboxamide] the same measures were 77 nM, 25000 nM and 850 nM.
Regarding `COCCNC(=O)c1nc[nH]c1C(=O)N[C@H]1CC[C@]2(CCN(c3ccc(F)cc3Cl)C2=O)CC1` [Example 341, N^5-[(cis)-2-(2-chloro-4-fluorophenyl)-1-oxo-2-azaspiro[4.5]dec-8-yl]-N^4-(2-methoxyethyl)-1H-imidazole-4,5-dicarboxamide], the half-inhibitory concentration (IC50) in test [1] was 2900 nM; in test [2] it was no less than 50000 nM; against TNKS2, greater than 10000 nM.
Turning to `NC(=O)c1nc[nH]c1C(=O)N[C@H]1CC[C@]2(CCN(c3ccc(F)cc3Cl)C2=O)CC1` [Example 342, N^5-[(cis)-2-(2-chloro-4-fluorophenyl)-1-oxo-2-azaspiro[4.5]dec-8-yl]-1H-imidazole-4,5-dicarboxamide], the IC50 in test [1] worked out at 840 nM; in test [2], 35000 nM; against TNKS2 it was 1300 nM.
As to `Cn1cc(C(=O)N[C@H]2CC[C@@]3(CCN(c4ccc(F)cc4Cl)C3=O)CC2)c2ncccc21` [Example 343, N-[(trans)-2-(2-chloro-4-fluorophenyl)-1-oxo-2-azaspiro[4.5]dec-8-yl]-1-methyl-1H-pyrrolo[3,2-b]pyridine-3-carboxamide], the IC50 amounted to 2.3 nM in test [1], 24000 nM in test [2] and 16 nM against TNKS2.
Consider `O=C(N[C@H]1CC[C@@]2(CCN(c3ccc(F)cc3Cl)C2=O)CC1)c1cn(CCO)c2cccnc12` [Example 344, N-[(trans)-2-(2-chloro-4-fluorophenyl)-1-oxo-2-azaspiro[4.5]dec-8-yl]-1-(2-hydroxyethyl)-1H-pyrrolo[3,2-b]pyridine-3-carboxamide], for which the concentration for half-maximal inhibition (IC50) in test [1] was 4 nM; in test [2], no less than 50000 nM; on TNKS2, 21 nM.
Turning to `COCCn1cc(C(=O)N[C@H]2CC[C@@]3(CCN(c4ccc(F)cc4Cl)C3=O)CC2)c2ncccc21` [Example 345, N-[(trans)-2-(2-chloro-4-fluorophenyl)-1-oxo-2-azaspiro[4.5]dec-8-yl]-1-(2-methoxyethyl)-1H-pyrrolo[3,2-b]pyridine-3-carboxamide], the concentration for half-maximal inhibition (IC50) in test [1] was found to be 17 nM; in test [2] it was 8200 nM; on TNKS2, 44 nM.
`O=C(N[C@H]1CC[C@@]2(CCN(c3ccccn3)C2=O)CC1)c1cnn2cccnc12` [Example 346, N-[(trans)-1-oxo-2-(pyridin-2-yl)-2-azaspiro[4.5]dec-8-yl]pyrazolo[1,5-a]pyrimidine-3-carboxamide]: the concentration for half-maximal inhibition (IC50) in test [1] was 59 nM; in test [2] it was no less than 50000 nM; at TNKS2, 530 nM.
On to `O=C(N[C@H]1CC[C@@]2(CCN(c3ccc(F)cc3Cl)C2=O)CC1)c1nnc2cccnn12` [Example 347, N-[(trans)-2-(2-chloro-4-fluorophenyl)-1-oxo-2-azaspiro[4.5]dec-8-yl][1,2,4]triazolo[4,3-b]pyridazine-3-carboxamide], for which the concentration for half-maximal inhibition (IC50) in test [1] was 2400 nM; in test [2], no less than 50000 nM; against TNKS2, 4000 nM.
On to `CCc1cc(CC)n2ncc(C(=O)N[C@H]3CC[C@@]4(CCN(c5ccc(F)cc5Cl)C4=O)CC3)c2n1` [Example 348, N-[(trans)-2-(2-chloro-4-fluorophenyl)-1-oxo-2-azaspiro[4.5]dec-8-yl]-5,7-diethyl pyrazolo[1,5-a]pyrimidine-3-carboxamide], for which the results for the IC50 (in test [1]; in test [2]; against TNKS2) were 1.8 nM, no less than 50000 nM and 9.2 nM, respectively.
Turning to `O=C(N[C@H]1CC[C@@]2(CCN(c3ccc(F)cc3Cl)C2=O)CC1)c1cnc2c(NCCC(F)(F)F)cc(Cl)nn12` [Example 349, 6-chloro-N-[(trans)-2-(2-chloro-4-fluorophenyl)-1-oxo-2-azaspiro[4.5]dec-8-yl]-8-[(3,3,3-trifluoropropyl)amino]imidazo[1,2-b]pyridazine-3-carboxamide], the figures for the IC50 (in test [1]; in test [2]; against TNKS2) were 14 nM, no less than 50000 nM and 43 nM, respectively.
On to `O=C(N[C@H]1CC[C@@]2(CCN(c3ccc(F)cc3Cl)C2=O)CC1)c1c[nH]c2nccnc12` [Example 350, N-[(trans)-2-(2-chloro-4-fluorophenyl)-1-oxo-2-azaspiro[4.5]dec-8-yl]-5H-pyrrolo[2,3-b]pyrazine-7-carboxamide], for which the IC50 was 1.2 nM in test [1], no less than 50000 nM in test [2] and 20 nM on TNKS2.
For `COc1ccc(Cl)c(N2CC[C@]3(CC[C@@H](NC(=O)c4cnn5cccnc45)CC3)C2=O)c1` [Example 353, N-[(trans)-2-(2-chloro-5-methoxyphenyl)-1-oxo-2-azaspiro[4.5]dec-8-yl]pyrazolo[1,5-a]pyrimidine-3-carboxamide] the same measures were 7.2 nM, 28000 nM and 27 nM.
Turning to `O=C(N[C@H]1CC[C@@]2(CCN(c3ccc(OC(F)(F)F)cc3Cl)C2=O)CC1)c1cnn2cccnc12` [Example 354, N-{(trans)-2-[2-chloro-4-(trifluoromethoxy)phenyl]-1-oxo-2-azaspiro[4.5]dec-8-yl}pyrazolo[1,5-a]pyrimidine-3-carboxamide], the IC50 amounted to 15 nM in test [1], 19000 nM in test [2] and 26 nM against TNKS2.
In the case of `O=C(N[C@H]1CC[C@@]2(CCN(c3cccs3)C2=O)CC1)c1cnn2cccnc12` [Example 361, N-[(trans)-1-oxo-2-(thiophen-2-yl)-2-azaspiro[4.5]dec-8-yl]pyrazolo[1,5-a]pyrimidine-3-carboxamide], the figures for the IC50 (in test [1]; in test [2]; against TNKS2) were 560 nM, no less than 50000 nM and 3900 nM, respectively.
Taken in the same sequence, the figures for `COC(=O)c1ccc(N2CC[C@]3(CC[C@@H](NC(=O)c4cnn5cccnc45)CC3)C2=O)c(Cl)c1` [Example 362, methyl 3-chloro-4-{(trans)-1-oxo-8-[(pyrazolo[1,5-a]pyrimidin-3-ylcarbonyl)amino]-2-azaspiro[4.5]dec-2-yl}benzoate] were 3.9 nM, 31000 nM and 33 nM.
